Patent publication US20230049952A1, “METHODS AND COMPOUNDS FOR RESTORING MUTANT P53 FUNCTION” (PMV Pharmaceuticals, Inc., priority 2020, published 2023)

System: p53 signaling pathway in MT373 tumors
Assay: MT373 syngeneic sarcoma model: mouse p53 signaling pathway profiling panel
Type: in vivo

## CCn1c(C#CCNc2ccccc2)cc2cc(CNC3CCN(C)CC3)ccc21 [Compound 1, 1-Anilino-3-{1-ethyl-5-[(1-methyl-4-piperidylamino)methyl]-1H-indol-2-yl}-2-propyne]
75 mg/kg BIDx1, 24 h
  Casp2 fold increase or percent reduction vs vehicle control: 16.13 fold or %
  Ccnb1 fold increase or percent reduction vs vehicle control: 65.51 fold or %
  Ccne1 fold increase or percent reduction vs vehicle control: 29.87 fold or %
  Ccng1 fold increase or percent reduction vs vehicle control: 4.63 fold or %
  Ccnh fold increase or percent reduction vs vehicle control: 3.31 fold or %
  Cdc25a fold increase or percent reduction vs vehicle control: 34.15 fold or %
  Cdk1 fold increase or percent reduction vs vehicle control: 59.92 fold or %
  Cdk4 fold increase or percent reduction vs vehicle control: 40.50 fold or %
  Cdkn1a fold increase or percent reduction vs vehicle control: 5.16 fold or %
  Cdkn2a fold increase or percent reduction vs vehicle control: 16.83 fold or %
  Chek1 fold increase or percent reduction vs vehicle control: 52.36 fold or %
  Cradd fold increase or percent reduction vs vehicle control: 5.90 fold or %
  Cul9 fold increase or percent reduction vs vehicle control: 1.58 fold or %
  Dapk1 fold increase or percent reduction vs vehicle control: 1.19 fold or %
  Dnmt1 fold increase or percent reduction vs vehicle control: 17.60 fold or %
  E2f1 fold increase or percent reduction vs vehicle control: 10.67 fold or %
  E2f3 fold increase or percent reduction vs vehicle control: 27.77 fold or %
  Egfr fold increase or percent reduction vs vehicle control: 28.18 fold or %
  Egr1 fold increase or percent reduction vs vehicle control: 64.73 fold or %
  Ep300 fold increase or percent reduction vs vehicle control: 3.09 fold or %
  Ercc1 fold increase or percent reduction vs vehicle control: 18.66 fold or %
  Esr1 fold increase or percent reduction vs vehicle control: 1.26 fold or %
  Fadd fold increase or percent reduction vs vehicle control: 5.60 fold or %
  Fas fold increase or percent reduction vs vehicle control: 1.45 fold or %
  Fasl fold increase or percent reduction vs vehicle control: 10.36 fold or %
  Foxo3 fold increase or percent reduction vs vehicle control: 3.58 fold or %
  Gadd45a fold increase or percent reduction vs vehicle control: 19.41 fold or %
  Hif1a fold increase or percent reduction vs vehicle control: 13.43 fold or %
  Il6 fold increase or percent reduction vs vehicle control: 70.78 fold or %
  Jun fold increase or percent reduction vs vehicle control: 38.98 fold or %
  Kras fold increase or percent reduction vs vehicle control: 13.87 fold or %
  Lig4 fold increase or percent reduction vs vehicle control: 1.17. fold or %
  Mdm2 fold increase or percent reduction vs vehicle control: 2.76 fold or %
  Mdm4 fold increase or percent reduction vs vehicle control: 1.07 fold or %
  Mel1 fold increase or percent reduction vs vehicle control: 15.14 fold or %
  Mlh1 fold increase or percent reduction vs vehicle control: 9.12 fold or %
  Msh2 fold increase or percent reduction vs vehicle control: 29.40 fold or %
  Myod1 fold increase or percent reduction vs vehicle control: 3.54 fold or %
  Nf1 fold increase or percent reduction vs vehicle control: 16.46 fold or %
  Nfkb1 fold increase or percent reduction vs vehicle control: 15.21 fold or %
  Pcna fold increase or percent reduction vs vehicle control: 43.21 fold or %
  Pmaip1 fold increase or percent reduction vs vehicle control: 3.81 fold or %
  Ppm1d fold increase or percent reduction vs vehicle control: 1.26 fold or %
  Prc1 fold increase or percent reduction vs vehicle control: 26.03 fold or %
  Prkca fold increase or percent reduction vs vehicle control: 16.45 fold or %
  Pten fold increase or percent reduction vs vehicle control: 1.18 fold or %
  Pttg1 fold increase or percent reduction vs vehicle control: 1.07 fold or %
  Rb1 fold increase or percent reduction vs vehicle control: 1.14 fold or %
  Rela fold increase or percent reduction vs vehicle control: 32.18 fold or %
  Rprm fold increase or percent reduction vs vehicle control: 1.77 fold or %
  Serpinb5 fold increase or percent reduction vs vehicle control: 1.20 fold or %
  Sesn2 fold increase or percent reduction vs vehicle control: 2.05 fold or %
  Sfn fold increase or percent reduction vs vehicle control: 15.25 fold or %
  Sirt1 fold increase or percent reduction vs vehicle control: 6.13 fold or %
  Stat1 fold increase or percent reduction vs vehicle control: 1.08 fold or %
  Tnf fold increase or percent reduction vs vehicle control: 24.76 fold or %
  Traf1 fold increase or percent reduction vs vehicle control: 1.06 fold or %
  Trp53bp2 fold increase or percent reduction vs vehicle control: 5.61 fold or %
  Trp53 fold increase or percent reduction vs vehicle control: 18.16 fold or %
75 mg/kg BIDx1, 48 h
  Apex1 fold increase or percent reduction vs vehicle control: 21.30 fold or %
  Atm fold increase or percent reduction vs vehicle control: 18.31 fold or %
  Atr fold increase or percent reduction vs vehicle control: 14.07 fold or %
  Bag1 fold increase or percent reduction vs vehicle control: 42.29 fold or %
  Bax fold increase or percent reduction vs vehicle control: 23.39 fold or %
  Bbc3 fold increase or percent reduction vs vehicle control: 1.32 fold or %
  Bid fold increase or percent reduction vs vehicle control: 1.21 fold or %
  Birc5 fold increase or percent reduction vs vehicle control: 50.48 fold or %
  Brca1 fold increase or percent reduction vs vehicle control: 31.46 fold or %
  Brca2 fold increase or percent reduction vs vehicle control: 25.33 fold or %
  Btg2 fold increase or percent reduction vs vehicle control: 11.23 fold or %
  Casp2 fold increase or percent reduction vs vehicle control: 9.89 fold or %
  Ccnb1 fold increase or percent reduction vs vehicle control: 59.73 fold or %
  Ccne1 fold increase or percent reduction vs vehicle control: 5.97 fold or %
  Ccng1 fold increase or percent reduction vs vehicle control: 9.36 fold or %
  Ccnh fold increase or percent reduction vs vehicle control: 12.98 fold or %
  Cdc25a fold increase or percent reduction vs vehicle control: 16.12 fold or %
  Cdk1 fold increase or percent reduction vs vehicle control: 55.02 fold or %
  Cdk4 fold increase or percent reduction vs vehicle control: 48.77 fold or %
  Cdkn1a fold increase or percent reduction vs vehicle control: 1.03 fold or %
  Cdkn2a fold increase or percent reduction vs vehicle control: 23.77 fold or %
  Chek1 fold increase or percent reduction vs vehicle control: 37.45 fold or %
  Cradd fold increase or percent reduction vs vehicle control: 13.67 fold or %
  Cul9 fold increase or percent reduction vs vehicle control: 2.20 fold or %
  Dapk1 fold increase or percent reduction vs vehicle control: 1.46 fold or %
